Laboratory results reported in PubChem BioAssay (NCI).
Where “and” joins values, the source holds several entries; their conditions need not be identical. Equal values may be shown once.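 The compound was tested at five concentrations on cells cultured in 96-well plates, with a 48-hour exposure period. GI50 = concentration required for 50% inhibition of growth. The concentration for full growth arrest is given as TGI.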

Tests used:
Assay in all cases: growth of human tumour cells (NCI), 48 h
[1] = test system: SF-539 CNS
[2] = test system: NCI-H522 lung
[3] = test system: A549 NSCLC
[4] = test system: DU-145 prostate
[5] = test system: SK-MEL-5 melanoma
[6] = test system: MCF7 breast
[7] = test system: BT-549 breast
[8] = test system: SF-295 CNS
[9] = test system: COLO 205 colon
[10] = test system: MALME-3M melanoma

Row | SMILES | GI50 [1] | TGI [1] | GI50 [2] | TGI [2] | GI50 [3] [µM] | TGI [3] | GI50 [4] [µM] | TGI [4] [µM] | GI50 [5] [µM] | TGI [5] [µM] | GI50 [6] [µM] | GI50 [7] [µM] | GI50 [8] [µM] | TGI [9] | TGI [10] | TGI [8] | TGI [6] [µM] | TGI [7] [µM] | GI50 [9] [µM] | GI50 [10] [µM]
1 | Nc1ncc(-c2ccc3ncnc(Nc4cccc(Cl)c4)c3c2)cn1 | 0.279 µM and 2.14 µM | > 100 µM | 0.128 µM | 4.95 µM | 1.7 | > 100 µM | 0.809 | > 100 | 2.31 | > 100 | 0.186 | 0.262 | 0.216 |  |  |  |  |  |  | 
2 | O=C1c2ccccc2-c2c3c(cc4ccnc1c24)OCO3 | 7.97 µM and 3.53 µM | 53.5 µM and 37.8 µM | 0.885 µM and 4.26 µM | 13.3 µM and 15.5 µM |  | 14.3 µM and 17.4 µM |  |  |  | 8.66 |  |  |  | 82.5 µM and 16 µM | 11 µM and 15.6 µM | 33.6 µM and 48.4 µM |  |  |  | 
3 | O=C1Nc2c(Cl)cc(Cl)cc2/C1=N/N=C/c1ccco1 |  | > 100 µM |  |  |  | > 100 µM |  |  |  | > 100 |  |  |  | 73.3 µM | > 100 µM | > 100 µM | > 100 | 60.6 |  | 
4 | c1ccc(SC(Sc2ccccc2)=C2CCC2)cc1 |  | > 100 µM |  | > 100 µM |  | > 100 µM |  |  |  | > 100 |  |  |  | > 100 µM |  | > 100 µM |  |  |  | 
5 | Oc1ccccc1-c1nn(CNc2ccc(Cl)cc2)c(=S)o1 | 23.8 µM | > 100 µM | > 100 µM | > 100 µM | 26.3 | 99.2 µM |  |  | 2.31 | > 100 | 4.17 | 61.1 | > 100 | > 100 µM |  | > 100 µM | > 100 | > 100 | 7.01 | 
6 | Cc1ccc(S(=O)(=O)ON2C(=O)c3cccc4cc([N+](=O)[O-])cc(c34)C2=O)cc1 |  |  |  | > 100 µM |  | > 100 µM |  | > 100 |  | > 100 |  |  |  | > 100 µM | > 100 µM | > 100 µM | > 100 | > 100 |  | 
7 | CN(C)c1ccc(/C=c2\sc3nnc(-c4ccco4)n3c2=O)cc1 |  | > 100 µM |  | > 100 µM |  | > 100 µM |  |  |  | > 100 |  |  |  | > 100 µM | > 100 µM | > 100 µM |  |  |  | 
8 | CCN(CC)CCN(CC)CC.CCN(CC)CCN(CC)CC.[Cu+2].[Cu+2].[O-][Cl+3]([O-])([O-])[O-].[OH3+].[OH3+] | > 100 µM | > 100 µM | 25.6 µM | 55.2 µM | 30.2 | > 100 µM |  |  | 15.6 | 29.5 |  |  | 34.4 | > 100 µM | > 100 µM | 98.9 µM |  |  | > 100 | > 100
9 | CCC[CH2][Sn](=[O])[CH2]CCC | > 50 µM | > 50 µM | > 50 µM | > 50 µM | > 50 | > 50 µM |  |  | > 50 | > 50 |  |  | > 50 | > 50 µM | > 50 µM | > 50 µM |  |  | > 50 | > 50
10 | CC1SC(c2ccccc2Cl)N(NC(=O)C(O)c2ccccc2)C1=O (stereo unspecified) | > 100 µM | > 100 µM | 54.4 µM | > 100 µM | 52.3 | > 100 µM | > 100 | > 100 | 63.9 | > 100 | 54.6 | > 100 | 32.4 |  |  | > 100 µM | > 100 | > 100 |  | 
11 | NC(=O)c1cc(N2CC2)c([N+](=O)[O-])cc1[N+](=O)[O-] | > 200 µM | > 200 µM | > 200 µM | > 200 µM |  | > 200 µM |  | > 200 |  | > 200 |  |  | > 200 | > 200 µM | > 200 µM | > 200 µM | > 63.2 |  | > 200 | 
12 | Cc1cccc(-c2nnc3s/c(=C\c4ccc(N(C)C)cc4)c(=O)n23)c1 |  | > 100 µM |  | > 100 µM |  | > 100 µM |  |  |  | > 100 |  |  |  | > 100 µM | > 100 µM | > 100 µM |  |  |  | 
13 | Cc1ccc(/C=C/C(=O)c2ccc(Cl)c(Cl)c2)cc1 |  |  |  | > 100 µM |  | > 100 µM |  |  |  | > 100 |  |  |  | > 100 µM | > 100 µM | > 100 µM |  |  |  | 
14 | CCOC(=O)C(=Cc1ccc(C#N)cc1)C(=O)OCC | 1.91 µM | 4.15 µM | 1.48 µM | 3.1 µM | 4.11 | 14.5 µM | 3.04 | 10.3 | 1.92 | 3.67 | 2.07 | 2.06 | 8.56 | 3.83 µM |  | 21.2 µM | 7.61 | 4.9 | 1.87 | 
